Results reported in US9611502B2, “Method for simultaneously measuring activity of various enzymes by using multi-wavelength absorption single channel” (Chongqing Medical University, priority 2012, dated 2017).
pKi: −log10 of the molar value. Each block holds one compound with its values, some of them ahead of it.

Columns and labels:
[1] = Specific activity of penicillin G-labeled β-D-galactosidase after labeling; type: biochemical; details: 50 mmol/L Tris-HCl pH 7.5
Procedure: b) mixing 50 ul solution of the activated penicillin G with 0.50 ml of 0.44 mg β-D-galactosidase dissolved in the sodium phosphate buffer at pH 7.4, keeping the mixture at 4° C. for reaction for 120 min; the resulting mixture of the labeled β-D-galactosidase is passed through Sephadex G25 column (15 cm height and 10 mm inner diameter with a packed volume of 10 ml, equilibrated with 50 mmol/L Tris-HCl at pH 7.5) and the column is eluted with the same Tris-HCl buffer to monitor the absorbance at 280 nm; the first peak of the elution is the labeled β-D-galactosidase, with a total of 0.22 mg protein in 2.0 ml elution solution;
c) determining the specific activity after labeling: in 50 mmol/L Tris-HCl at pH 7.5, the specific activity of the labeled β-D-galactosidase is about 30 μmol·(L·min·mg)^−1 on 4-nitrophenyl-β-D-galactoside, indicating the reservation of nearly 100% activity; meanwhile, the specific activity on 4-nitro-1-napthyl-β-D-galactoside in the same buffer, its specific activity is about 100 (L·min·mg)^−1, but just about 70% of that before modification;

[2] = test system: γ-glutamyltransferase (GGT); details: preset for data processing; cited from earlier work
[3] = target: T1, calf intestinal alkaline phosphatase (CIAP) (Bos taurus, UniProt P19111); design: purchased Sigma P0114; details: Blake et al 1982 method; cited from earlier work
T1 sequence (P19111 20-506): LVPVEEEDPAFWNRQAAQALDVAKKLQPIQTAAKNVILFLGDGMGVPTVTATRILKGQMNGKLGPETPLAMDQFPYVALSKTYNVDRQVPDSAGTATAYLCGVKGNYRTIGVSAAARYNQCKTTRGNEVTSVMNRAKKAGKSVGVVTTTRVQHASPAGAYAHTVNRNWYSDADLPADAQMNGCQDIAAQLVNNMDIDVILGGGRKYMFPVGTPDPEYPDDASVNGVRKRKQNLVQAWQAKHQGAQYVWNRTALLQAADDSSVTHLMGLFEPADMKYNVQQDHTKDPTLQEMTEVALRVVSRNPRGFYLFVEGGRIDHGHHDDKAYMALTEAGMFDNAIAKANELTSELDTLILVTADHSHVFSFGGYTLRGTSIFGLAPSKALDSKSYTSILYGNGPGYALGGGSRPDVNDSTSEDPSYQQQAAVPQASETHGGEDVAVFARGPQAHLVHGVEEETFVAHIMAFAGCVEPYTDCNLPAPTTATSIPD

[4] = target: T2, lactic acid dehydrogenase (LDH) (Oryctolagus cuniculus, UniProt P13491); assay: LDH kinetics and competitive inhibition by 4-nitroaniline (simultaneous GGT/LDH assay); type: biochemical, rabbit
T2 construct: purchased Shanghai Shangon NB0642

[5] = target: T1, calf intestinal alkaline phosphatase (CIAP)

reservation of activity after labeling (4-nitrophenyl-β-D-galactoside) [1]: about 100%
Compound: labeled β-D-galactosidase: β-D-galactosidase (Sigma G4155) modified with activated penicillin G
specific activity on 4-nitro-1-napthyl-β-D-galactoside [1]: about 100 (L·min·mg)^−1
specific activity on 4-nitro-1-napthyl-β-D-galactoside relative to that before modification [1]: about 70%
specific activity on 4-nitrophenyl-β-D-galactoside [1]: about 30 μmol·(L·min·mg)^−1

Compound: N[C@@H](CCC(=O)Nc1ccc([N+](=O)[O-])cc1)C(=O)O [γ-glutamyl-(4-nitro)-aniline]
Michaelis constant of GGT for substrate (preset) [2]: 1.00 mmol/L

Compound: phenolphthalein monophosphate
specific activity of CIAP relative to that on p-nitrophenylphosphate [3]: about 7%

Compound: Nc1ccc([N+](=O)[O-])cc1 [4-nitroaniline]
pKi [4]: 4.62

Compound: O=[N+]([O-])c1ccc(OP(=O)(O)O)c2ccccc12 [4NNPP, 4-nitronaphthylphosphate]
specific activity of CIAP relative to that on 4-nitrophenylphosphate [5]: about 40%
Michaelis constant of CIAP ([5]; 4NNPP as chromogenic substrate): about 10 μmol/L

Compound: NC(=O)C1=CN([C@@H]2O[C@H](COP(=O)(O)OP(=O)(O)OC[C@H]3O[C@@H](n4cnc5c(N)ncnc54)[C@H](O)[C@@H]3O)[C@@H](O)[C@H]2O)C=CC1 [NADH, reduced form of nicotine adenine nucleotide]
Michaelis constant of LDH for NADH ([4]; pyruvate 3.0 mmol/L, pH 7.0): 0.040 mmol/L
